Our source for the inhibition and IC50 values is ChEMBL document CHEMBL5625247, “Tetrahydro-β-carboline derivatives as potent histone deacetylase 6 inhibitors with broad-spectrum antiproliferative activity” (Eur J Med Chem, 2023).

Experiment [1] addresses T1, Protein deacetylase HDAC6 (Homo sapiens) (UniProt Q9UBN7).
T1 sequence (whole entry): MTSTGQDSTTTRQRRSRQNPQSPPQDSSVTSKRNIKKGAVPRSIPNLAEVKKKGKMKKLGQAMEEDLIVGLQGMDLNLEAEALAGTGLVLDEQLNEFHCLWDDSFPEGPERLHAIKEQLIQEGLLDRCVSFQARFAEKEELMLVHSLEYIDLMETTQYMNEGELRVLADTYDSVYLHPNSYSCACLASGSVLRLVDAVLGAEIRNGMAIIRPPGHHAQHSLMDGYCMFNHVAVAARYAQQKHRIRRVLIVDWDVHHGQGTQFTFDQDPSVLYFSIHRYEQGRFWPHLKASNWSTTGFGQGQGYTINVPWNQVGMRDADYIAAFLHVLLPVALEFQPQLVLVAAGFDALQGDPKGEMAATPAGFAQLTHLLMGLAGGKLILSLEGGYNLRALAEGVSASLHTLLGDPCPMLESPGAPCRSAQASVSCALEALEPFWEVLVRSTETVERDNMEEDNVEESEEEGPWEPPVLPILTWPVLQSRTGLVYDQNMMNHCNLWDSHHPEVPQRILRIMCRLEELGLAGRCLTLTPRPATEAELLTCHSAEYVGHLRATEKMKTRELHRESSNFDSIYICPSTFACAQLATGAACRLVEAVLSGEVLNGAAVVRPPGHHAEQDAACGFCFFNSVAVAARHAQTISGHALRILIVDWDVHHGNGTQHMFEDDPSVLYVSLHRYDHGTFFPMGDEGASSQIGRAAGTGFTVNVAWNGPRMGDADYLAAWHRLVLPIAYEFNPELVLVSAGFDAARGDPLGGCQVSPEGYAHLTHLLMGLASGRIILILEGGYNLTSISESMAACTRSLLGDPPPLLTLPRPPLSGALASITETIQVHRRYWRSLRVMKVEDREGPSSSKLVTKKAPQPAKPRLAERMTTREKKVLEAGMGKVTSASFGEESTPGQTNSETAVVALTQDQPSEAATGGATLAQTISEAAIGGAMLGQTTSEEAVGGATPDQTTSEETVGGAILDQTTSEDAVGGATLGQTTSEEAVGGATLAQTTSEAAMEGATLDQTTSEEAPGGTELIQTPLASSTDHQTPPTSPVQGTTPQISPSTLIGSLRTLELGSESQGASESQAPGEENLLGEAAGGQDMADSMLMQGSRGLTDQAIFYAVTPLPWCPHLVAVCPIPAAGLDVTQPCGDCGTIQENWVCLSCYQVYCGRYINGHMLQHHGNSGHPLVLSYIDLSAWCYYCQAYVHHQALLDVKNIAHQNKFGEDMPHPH
Put plainly: Inhibition of HDAC6 (unknown origin) expressed in baculovirus infected in Sf9 cells using RHKKAc as substrate at 500 nM preincubated for 5 to 10 mins followed by substrate addition measured after 2 hrs by fluorescence based assay relative to control. The note with it: time 5-130 min.

Experiment [2] has as its target T2, Histone deacetylase 1 (Homo sapiens, UniProt Q13547). The experiment can be described thus: Inhibition of HDAC1 (unknown origin) expressed in baculovirus infected in Sf9 cells using RHKKAc as substrate at 500 nM preincubated for 5 to 10 mins followed by substrate addition measured after 2 hrs by fluorescence based assay relative to control. The note with it: time 5-130 min.

Another experiment has as its system RPMI-8226. The experiment can be described thus: cells. Format: functional, cell-based. As to conditions: Homo sapiens, RPMI-8226, 72 h.
Experiment [3] addresses T2, Histone deacetylase 1. Put plainly: Inhibition of HDAC1 (unknown origin) expressed in baculovirus infected in Sf9 cells using RHKKAc as substrate preincubated for 5 to 10 mins followed by substrate addition measured after 2 hrs by fluorescence based assay.
The target in experiment [4] is T3, Protein deacetylase HDAC6 (Homo sapiens, UniProt Q9UBN7).
T3 sequence (Q9UBN7 whole entry): T1 sequence (whole entry)
Put plainly: Inhibition of HDAC6 (unknown origin) expressed in baculovirus infected in Sf9 cells using RHKKAc as substrate preincubated for 5 to 10 mins followed by substrate addition measured after 2 hrs by fluorescence based assay.

T2 sequence (Q13547 whole entry): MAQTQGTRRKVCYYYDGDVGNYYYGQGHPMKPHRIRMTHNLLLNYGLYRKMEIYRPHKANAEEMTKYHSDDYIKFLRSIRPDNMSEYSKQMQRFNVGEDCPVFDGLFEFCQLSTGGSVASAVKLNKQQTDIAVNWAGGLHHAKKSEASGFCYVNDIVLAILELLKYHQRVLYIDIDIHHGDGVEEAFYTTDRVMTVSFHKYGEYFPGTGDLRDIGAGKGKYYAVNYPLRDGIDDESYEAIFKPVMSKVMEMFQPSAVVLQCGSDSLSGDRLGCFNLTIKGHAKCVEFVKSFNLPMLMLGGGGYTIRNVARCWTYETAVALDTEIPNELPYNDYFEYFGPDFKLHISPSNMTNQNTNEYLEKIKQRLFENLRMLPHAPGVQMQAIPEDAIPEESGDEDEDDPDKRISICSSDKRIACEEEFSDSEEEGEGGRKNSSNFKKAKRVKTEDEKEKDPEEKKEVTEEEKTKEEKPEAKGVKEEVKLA

On to `COc1ccc(CN2Cc3[nH]c4ccccc4c3C[C@@H]2C(=O)NCc2ccc(C(=O)NO)cc2)cc1`, for which the inhibition – broadly, the change of the read-out against control, counted positive when it falls – was 83.4% in experiment [1] and 32% on Histone deacetylase 1 [2].
As for `COc1ccc([C@@H]2N[C@H](C(=O)NCc3ccc(C(=O)NO)cc3)Cc3c2[nH]c2ccccc32)cc1`, the values for the inhibition (in experiment [1]; against Histone deacetylase 1 [2]) were 87.1% and 30.6%, respectively.
Regarding `O=C(NO)c1ccc(CNC(=O)[C@H]2Cc3c([nH]c4ccccc34)[C@H](C3CCCC3)N2)cc1`, the concentration for half-maximal inhibition (IC50) (commonly the concentration that inhibits the measured activity by half) in the experiment with RPMI-8226 was found to be 0.68 µM; against Histone deacetylase 1 [3], 0.0405 µM; in experiment [4] it was 0.00253 µM.
Consider `COc1ccc(CN2[C@H](C(=O)NCc3ccc(C(=O)NO)cc3)Cc3c([nH]c4ccccc34)[C@H]2C2CC2)cc1`, for which the IC50 against Histone deacetylase 1 [3] was determined as 1.68 µM. On Histone deacetylase 1 [2], the inhibition stood at 43.2%.
Turning to `O=C(NO)c1ccc(CNC(=O)[C@H]2Cc3c([nH]c4ccccc34)[C@H](C3CC3)N2Cc2ccc(Cl)cc2)cc1`, the IC50 against Histone deacetylase 1 [3] stood at 0.184 µM; in experiment [4], 0.0105 µM.
On to `COc1ccc([C@@H]2N[C@@H](C(=O)NCc3ccc(C(=O)NO)cc3)Cc3c2[nH]c2ccccc32)cc1`, for which the inhibition in experiment [1] came to 96.4%; against Histone deacetylase 1 [2], 90.6%. In addition, the figures for the 50% inhibitory concentration (IC50) (on Histone deacetylase 1 [3]; in experiment [4]) were 0.0515 µM and 0.00234 µM, respectively.
Turning to `COc1ccc(C[C@H]2N[C@H](C(=O)NCc3ccc(C(=O)NO)cc3)Cc3c2[nH]c2ccccc32)cc1`, the inhibition turned out to be 81.5% in experiment [1] and 38.1% at Histone deacetylase 1 [2].
As to `COc1ccc(CN2[C@@H](C(=O)NCc3ccc(C(=O)NO)cc3)Cc3c([nH]c4ccccc34)[C@@H]2C)cc1`, the IC50 against Histone deacetylase 1 [3] is 0.125 µM; in experiment [4], 0.00884 µM.
As to `COc1ccc([C@@H]2N[C@@H](C(=O)NCc3ccc(C(=O)NO)cc3)Cc3c2[nH]c2ccccc32)cc1OC`, the figures for the IC50 in the experiment on RPMI-8226 and against Histone deacetylase 1 [3] were 0.9 µM and 0.078 µM, respectively.
As for `O=C(NO)c1ccc(CNC(=O)[C@H]2Cc3c([nH]c4ccccc34)[C@H](c3ccccc3)N2)cc1`, the concentration for half-maximal inhibition (IC50) in the experiment with RPMI-8226 was determined as 0.58 µM; against Histone deacetylase 1 [3] it was 0.0423 µM; in experiment [4] it was 0.0021 µM.
For `O=C(NO)c1ccc(CNC(=O)[C@H]2Cc3c([nH]c4ccccc34)[C@H](c3ccc(Cl)cc3)N2CC2CC2)cc1`, the IC50 against Histone deacetylase 1 [3] was 0.106 µM.
Regarding `O=C(NO)c1ccc(CNC(=O)[C@H]2Cc3c([nH]c4ccccc34)[C@H](C3CC3)N2)cc1`, the IC50 worked out at 0.83 µM with RPMI-8226, 0.038 µM on Histone deacetylase 1 [3] and 0.00436 µM in experiment [4].
In the case of `COc1ccc([C@H]2N[C@@H](C(=O)NCc3ccc(C(=O)NO)cc3)Cc3c2[nH]c2ccccc32)cc1`, the results for the inhibition (in experiment [1]; against Histone deacetylase 1 [2]) were 82.3% and 35.8%, respectively.
On to `COc1ccc([C@H]2N[C@H](C(=O)NCc3ccc(C(=O)NO)cc3)Cc3c2[nH]c2ccccc32)cc1`, for which the inhibition turned out to be 98.7% in experiment [1] and 71.4% on Histone deacetylase 1 [2]. Also, the IC50 at Histone deacetylase 1 [3] was found to be 0.494 µM; in experiment [4] it was 0.00375 µM.
